Test results taken from the NIST ThermoML archive (doi:10.1021/je900064e).
Several values for one entry are separate records, joined by “and”; a condition that tells them apart may be missing. Equal entries are not always repeated. Numbers after ± are expanded uncertainties.

Legend:
[1] = φn = volume fraction of the nth substance listed; details: 101 kPa, Liquid, φ1 = 0.5
[2] = 101.33 kPa, Liquid; for speed of sound: Sing-around technique in a fixed-path interferometer

For `CCO` [ethanol] + O, which mass density ([1]; 288.15 K) is on record?
Its mass density is 930.86 ± 0.7 kg/m3.

What about the speed of sound ([1]; 288.15 K) of the same compound?
Its speed of sound is 1546.7 ± 3.2 m/s.

And the mass density ([1]; 293.15 K)?
Its mass density is 927.08 ± 0.71 kg/m3.

And the speed of sound ([1]; 293.15 K)?
Its speed of sound is 1534.1 ± 3.2 m/s.

And the mass density ([1]; 298.15 K)?
The mass density was 923.22 ± 0.72 kg/m3.

What about the speed of sound ([1]; 298.15 K) of the same compound?
Its speed of sound is 1521.1 ± 3.2 m/s.

And the mass density ([1]; 303.15 K)?
Its mass density is 919.31 ± 0.73 kg/m3.

What about the speed of sound ([1]; 303.15 K) of the same compound?
The speed of sound was 1507.9 ± 3.2 m/s.

What about the mass density ([1]; 308.15 K) of the same compound?
Its mass density is 915.32 ± 0.74 kg/m3.

And the speed of sound ([1]; 308.15 K)?
Its speed of sound is 1494.5 ± 3.2 m/s.

What about the mass density ([1]; 313.15 K) of the same compound?
Its mass density is 911.27 ± 0.75 kg/m3.

What about the speed of sound ([1]; 313.15 K) of the same compound?
Its speed of sound is 1480.9 ± 3.2 m/s.

And the mass density ([1]; 318.15 K)?
Its mass density is 908.03 ± 0.76 kg/m3 and 907.3 ± 0.76 kg/m3.

And the speed of sound ([1]; 318.15 K)?
Its speed of sound is 1467 ± 3.1 m/s.

And the mass density ([1]; 323.15 K)?
The mass density was 904.32 ± 0.77 kg/m3 and 903.71 ± 0.77 kg/m3.

What about the speed of sound ([1]; 323.15 K) of the same compound?
Its speed of sound is 1452.9 ± 3.1 m/s.

What does the source list for `CN(CCO)CCO` [N-methyldiethanolamine]?
speed of sound ([2]; 288.15 K): 1598.8 ± 3.3 m/s; mass density ([2]; 288.15 K, Vibrating tube method): 1044.32 ± 1.2 kg/m3; speed of sound ([2]; 293.15 K): 1583.1 ± 3.3 m/s; mass density ([2]; 293.15 K, Vibrating tube method): 1040.59 ± 1.2 kg/m3; speed of sound ([2]; 298.15 K): 1564.1 ± 3.3 m/s; mass density ([2]; 298.15 K, Vibrating tube method): 1036.79 ± 1.2 kg/m3; speed of sound ([2]; 303.15 K): 1546 ± 3.2 m/s; mass density ([2]; 303.15 K, Vibrating tube method): 1033.06 ± 1.2 kg/m3; speed of sound ([2]; 308.15 K): 1531 ± 3.2 m/s; mass density ([2]; 308.15 K, Vibrating tube method): 1029.26 ± 1.2 kg/m3; speed of sound ([2]; 313.15 K): 1516.1 ± 3.2 m/s; mass density ([2]; 313.15 K, Vibrating tube method): 1025.45 ± 1.1 kg/m3; speed of sound ([2]; 318.15 K): 1503.2 ± 3.2 m/s; mass density ([2]; 318.15 K, Vibrating tube method): 1021.62 ± 1.1 kg/m3; speed of sound ([2]; 323.15 K): 1490.4 ± 3.2 m/s; mass density ([2]; 323.15 K, Vibrating tube method): 1018.22 ± 1.1 kg/m3

What does the source list for `OCCN(CCO)CCO` [triethanolamine]?
mass density ([2]; 288.15 K): 1126.19 ± 2.2 kg/m3; speed of sound ([2]; 288.15 K): 1631.1 ± 3.4 m/s; mass density ([2]; 293.15 K): 1123.42 ± 2.1 kg/m3; speed of sound ([2]; 293.15 K): 1623.9 ± 3.3 m/s; mass density ([2]; 298.15 K): 1120.99 ± 2.1 kg/m3; speed of sound ([2]; 298.15 K): 1614.5 ± 3.3 m/s; mass density ([2]; 303.15 K): 1118.21 ± 2.1 kg/m3; speed of sound ([2]; 303.15 K): 1604.5 ± 3.3 m/s; mass density ([2]; 308.15 K): 1115.38 ± 2.1 kg/m3; speed of sound ([2]; 308.15 K): 1595.5 ± 3.3 m/s; mass density ([2]; 313.15 K): 1112.57 ± 2.1 kg/m3; speed of sound ([2]; 313.15 K): 1587 ± 3.3 m/s; mass density ([2]; 318.15 K): 1109.78 ± 2.1 kg/m3; speed of sound ([2]; 318.15 K): 1578.8 ± 3.3 m/s; mass density ([2]; 323.15 K): 1106.93 ± 2 kg/m3; speed of sound ([2]; 323.15 K): 1570.6 ± 3.3 m/s
